From patent publication US20210252175A1, “NOVEL COMPOUNDS FOR DIAGNOSIS” (AC IMMUNE SA, priority 2018, published 2021)
“Also recorded” adds a separate entry of the source. Read-outs that look alike come from different tables or passages of the source.

What was measured:
[1] = biological target: T1, Aβ pathological aggregates present in the human AD insoluble fractions (Homo sapiens, UniProt P05067); assay: Radio-binding competition assay on human AD insoluble fraction; conditions: for Ki: radioligand [3H] Example 47 of WO2017/153601 at 7 nM
T1 construct: "4.7 g of frontal lobe tissue from post-mortem brain of one Alzheimer's disease (AD) patient"
T1 sequence (P05067 whole entry): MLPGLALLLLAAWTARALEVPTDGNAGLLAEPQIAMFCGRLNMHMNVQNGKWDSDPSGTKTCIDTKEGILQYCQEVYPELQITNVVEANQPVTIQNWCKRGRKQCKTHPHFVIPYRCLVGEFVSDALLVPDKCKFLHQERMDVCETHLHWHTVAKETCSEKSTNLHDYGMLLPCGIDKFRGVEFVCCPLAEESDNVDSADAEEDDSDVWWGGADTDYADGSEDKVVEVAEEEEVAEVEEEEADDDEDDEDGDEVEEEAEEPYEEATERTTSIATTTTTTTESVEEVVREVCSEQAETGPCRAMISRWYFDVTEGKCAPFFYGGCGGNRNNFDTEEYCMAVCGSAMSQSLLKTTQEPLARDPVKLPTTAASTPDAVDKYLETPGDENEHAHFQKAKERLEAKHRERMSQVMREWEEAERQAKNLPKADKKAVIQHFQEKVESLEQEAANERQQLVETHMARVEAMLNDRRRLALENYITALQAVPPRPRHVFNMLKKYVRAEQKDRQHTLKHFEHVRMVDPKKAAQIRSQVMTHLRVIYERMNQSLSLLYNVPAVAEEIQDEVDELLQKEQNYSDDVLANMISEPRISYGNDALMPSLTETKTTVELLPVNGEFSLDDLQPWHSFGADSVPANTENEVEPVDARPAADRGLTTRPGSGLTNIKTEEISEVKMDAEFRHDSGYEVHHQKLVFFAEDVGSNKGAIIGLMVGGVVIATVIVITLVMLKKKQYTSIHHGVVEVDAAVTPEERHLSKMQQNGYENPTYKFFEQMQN
Procedure: 4.7 g of frontal lobe tissue from post-mortem brain of one Alzheimer's disease (AD) patient were purchased from an external provider (Tissue Solutions Ltd., UK). The patient was a […] and died […]. The brain sample was collected 7.7 hours post-mortem and characterized for Braak disease stage (Braak, H.; Braak, E. Acta Neuropathol., 1991, 82, 239-259) as stage VI. For the preparation of the insoluble fractions, around 3 g of the AD human brain was thawed on ice and homogenized with 8.9 mL of homogenization buffer (0.75 M NaCl, 5 mM EDTA, 50 mM Tris-HCl, pH 7.5) supplemented with protease inhibitors (Complete; Roche 11697498001) in a glass Dounce homogenizer. The homogenization was performed at 4° C. The homogenate was transferred into polycarbonate centrifuge tubes (16×76 mm; Beckman 355603) and centrifuged at 100,000 g (38,000 RPM) in an ultracentrifuge (Beckman, XL100K) for 60 min at 4° C. using the pre-cooled 70.1 rotor (Beckman, 342184). Supernatants were discarded and pellets were re-suspended in 8.9 mL of homogenization buffer supplemented with 1% Triton X-100 (Sigma 93426) and processed with glass Dounce homogenizer at 4° C. The solution was then transferred into polycarbonate centrifuge bottles (16×76 mm; Beckman 355603) and centrifuged at 100,000 g (38,000 RPM) in an ultracentrifuge (Beckman, XL100K) for 60 min at 4° C. using the 70.1 Ti rotor. The process was repeated one more time (supernatants were discarded and pellets were re-suspended in 8.9 mL of homogenization buffer supplemented with 1% Triton X-100 and 1M sucrose processed with glass Dounce homogenizer at 4° C. The solution was then centrifuged at 100,000 g (38,000 RPM) for 60 min at 4° C. using the 70.1 Ti rotor). Supernatant was discarded and pellet was resuspended in 4 mL of PBS to obtain the insoluble fraction. The material was aliquoted and stored at −80° C. until use.
AD insoluble fractions diluted 1/100 were incubated in the presence of [^3H] Example 47 disclosed in WO2017/153601 used as Aβ reference binder, at a concentration of 7 nM and the example compounds of this invention were prepared at increasing concentrations in the range 0.4 nM to 2 μM for 120 minutes at 25° C. 90 μL of samples in duplicates were then filtered under vacuum on a GF/C filter plate (PerkinElmer 6005174) to trap the Aβ aggregates within the AD insoluble fractions with the bound radio-ligand, and washed five times with Tris 50 mM buffer pH 7-5. The GF/C filters were then vacuum-dried, 50 μL scintillation liquid (Ultimate Gold MB, PerkinElmer) was added in each well, and the filters were analyzed on a Microbeta2 device. Non-specific signal was determined with an excess of un-labeled ligand and specific binding was calculated by subtracting the non-specific signal from the total signal. Competition was calculated as percent, where 0% was defined as the specific binding in the presence of vehicle (0.1% DMSO in 50 mM Tris in 0.9% NaCl, 0.1% BSA) and 100% as the values obtained in the presence of excess cold Example 47 disclosed in WO2017/153601. The Ki values were calculated by nonlinear regression, one site specific binding using Prism V7 (GraphPad). Ki values to AD insoluble fraction were determined in independent experiments. Results of radio-binding competition assay on AD insoluble fraction are shown in Table 9 as measurements C and D. The Kd for the radioligand [^3H] Example 47 disclosed in WO2017/153601 on the AD insoluble fraction in measurements C and D was 8 nM.
Example compounds are ranked based on the measured Ki values to Aβ pathological aggregates present in the AD insoluble fractions.

[2] = biological target: T2, Recombinant human full-length wild-type aSyn fibrils (Homo sapiens, UniProt P37840); assay: Radio-binding competition assay on recombinant aSyn fibrils; conditions: for improvement of Ki value on aSyn fibrils compared to compounds 70 and 71 of WO2017/153601: head-to-head within the same measurement; for binding to aSyn fibrils in comparison to Examples 70 and 71 of WO2017/153601: comparison of Ki values of Table 9; for Kd: read-out: Kd of the radioligand on aSyn fibrils
T2 construct: Recombinant human full-length wild-type aSyn bacterially expressed; purchased rPeptide, US
Procedure: Recombinant human full-length wild-type aSyn bacterially expressed was obtained from a commercial provider (rPeptide, US). Protein preparation was transferred into polycarbonate centrifuge tubes (8×51 mm; Beckman 355657) and centrifuged at 100,000 g (38,000 rounds per minute, RPM) in an ultracentrifuge (Beckman, XL100K) for 60 min at 4° C. using the pre-cooled 50.4 Ti rotor (Beckman) to pellet any aggregated material. Supernatant was transferred into a sterile, low retention tube at a final concentration of 5 mg/mL and final volume of 0.5 mL in PBS. The protein was placed in a Thermomixer (Eppendorf) and incubated for 7 days at 37° C. with orbital shaking at 1000 rpm to generate aSyn fibrils.
Material containing aSyn fibrils was transferred into polycarbonate centrifuge tubes (8×51 mm; Beckman 355657) and centrifuged at 100,000 g (38,000 RPM) in an ultracentrifuge (Beckman, XL100K) for 60 min at 4° C. using the pre-cooled 50.4 Ti rotor. The supernatant containing still monomeric aSyn was transferred into new tubes and its concentration was determined. The pellet was resuspended with equal volume of PBS and subjected to further rounds of ultracentrifugation until the concentration obtained for the supernatant was below 0.1 mg/mL. The pellet obtained at the last round of ultracentrifugation containing aSyn fibrils was aliquoted and stored at −80° C. until use. Aggregated aSyn was used at a concentration of 1 μM in radiobinding assays.
Determination of the Binding Affinity (Ki) by Radio-Binding Competition Assay Recombinant aSyn fibrils at concentration of 1 μM were incubated with [^3H] Example 69 disclosed in WO2017/153601, used as aSyn reference binder, at concentrations between 25 nM and 35 nM. The example compounds of this invention were incubated at increasing concentrations in the range 0.4 nM to 2 μM for 120 minutes at 25° C. 90 μL of samples in duplicates were then filtered under vacuum on a GF/C filter plate (PerkinElmer 6005174) to trap the aSyn fibrils with the bound radio-ligand, and washed five times with Tris 50 mM buffer pH 7-5. The GF/C filters were then vacuum-dried, 50 μL scintillation liquid (Ultimate Gold MB, PerkinElmer) was added in each well, and the filters were analyzed on a Microbeta2 device. Non-specific signal was determined with an excess of un-labeled ligand and specific binding was calculated by subtracting the non-specific signal from the total signal. Competition was calculated as percent, where 0% was defined as the specific binding in the presence of vehicle (0.1% DMSO in 50 mM Tris in 0.9% NaCl, 0.1% BSA) and 100% as the values obtained in the presence of excess cold Example 69 disclosed in WO2017/153601. All measurements were performed with at least two technical replicates. The K; values were calculated by nonlinear regression, one site specific binding using Prism V7 (GraphPad). Ki values to recombinant aSyn fibrils were determined in independent experiments and two different batches of aSyn fibrils, derived from the same source but different lots of monomeric aSyn. Results of radio-binding competition assay for the example compounds tested in parallel within the same experiment are shown in Table 9 as measurements A and B. Measurement A was performed on one batch of aSyn fibrils; the Kd for the radioligand [^3H] Example 69 disclosed in WO20171153601 for this batch of aSyn fibrils was 32 nM. Measurement B was performed on second batch of aSyn fibrils, the corresponding Kd for the radioligand [^3H] Example 69 disclosed in WO2017/153601 for the second batch of aSyn fibrils was 60 nM.

[3] = measurement C, read-out: Ki on human AD-Insoluble Fraction, measurement C
[4] = measurement A, first batch of aSyn fibrils, radioligand [3H] Example 69 of WO2017/153601 (Kd 32 nM), read-out: Ki on aSyn Fibrils, measurement A
[5] = measurement B, second batch of aSyn fibrils, radioligand [3H] Example 69 of WO2017/153601 (Kd 60 nM), read-out: Ki on aSyn Fibrils, measurement B
[6] = measurement D, read-out: Ki on human AD-Insoluble Fraction, measurement D

CN1CCN(c2cc3sc(-c4ccc(N5CC[C@@H](F)C5)nc4)nc3cn2)C(=O)C1 [Example 1]
Ki [1, 3]: > 500 nM | improvement of Ki value on aSyn fibrils compared to compounds 70 and 71 of WO2017/153601 [2]: improved by at least twofold | Ki [2, 4]: 14.7 nM | Ki [2, 5]: 31.9 nM

CN1CCN(c2cc3sc(-c4ccc(N5CC[C@H](F)C5)nc4)nc3cn2)C(=O)C1 [Example 2]
Ki [1, 3]: > 500 nM | Ki [1, 6]: > 500 nM | improvement of Ki value on aSyn fibrils compared to compounds 70 and 71 of WO2017/153601 [2]: improved by at least twofold | Ki [2, 4]: 12.2 nM | Ki [2, 5]: 31.9 nM

CN1CCN(c2cc3sc(-c4ccc(N5CC(F)C5)nc4)nc3cn2)C(=O)C1 [Example 3A]
Ki [1, 6]: > 500 nM | binding to aSyn fibrils in comparison to Examples 70 and 71 of WO2017/153601 [2]: similar | Ki [2, 5]: 96.8 nM

CNc1ncc(-c2nc3cnc(N4CCN(C)CC4=O)cc3s2)cc1F [Example 3B]
Ki [1, 3]: 50 to 500 nM | Ki [1, 6]: 50 to 500 nM | binding to aSyn fibrils in comparison to Examples 70 and 71 of WO2017/153601 [2]: improved | Ki [2, 4]: 27.8 nM

CN1CCN(c2cc3sc(-c4cnc(N5CCC5)c(F)c4)nc3cn2)C(=O)C1 [Example 3C]
Ki [1, 6]: > 500 nM | binding to aSyn fibrils in comparison to Examples 70 and 71 of WO2017/153601 [2]: improved; also recorded: considerably greater affinity | Ki [2, 4]: 5.8 nM

CN1CCN(c2cc3sc(-c4cnc(N5CC[C@@H](F)C5)nc4)nc3cn2)C(=O)C1 [Example 3D]
Ki [1, 6]: > 500 nM | binding to aSyn fibrils in comparison to Examples 70 and 71 of WO2017/153601 [2]: improved | Ki [2, 4]: 38.4 nM

CN1CCN(c2ncc3nc(-c4ccc(N5CC[C@@H](F)C5)nc4)sc3n2)C(=O)C1 [Example 3]
Ki [1, 3]: > 500 nM | Ki [1, 6]: > 500 nM | Ki [2, 5]: 28.3 nM

CN1CCN(c2ccc3nc(-c4ccc(N5CC[C@@H](F)C5)nc4)sc3n2)C(=O)C1 [Example 4]
improvement of Ki value on aSyn fibrils compared to compounds 70 and 71 of WO2017/153601 [2]: improved by at least twofold

CN1CCN(c2ncc3nc(-c4ccc(N5CC[C@H](F)C5)nc4)sc3n2)C(=O)C1 [Example 4]
Ki [1, 6]: > 500 nM | Ki [2, 5]: 52.8 nM

CN1CCN(c2ccc3nc(-c4ccc(N5CC[C@@H](F)C5)nc4)sc3n2)C(=O)C1 [Example 5]
Ki [1, 6]: > 500 nM | Ki [2, 5]: 41.7 nM

CN1CCN(c2ccc3nc(-c4ccc(N5CC[C@H](F)C5)nc4)sc3n2)C(=O)C1 [Example 5]
improvement of Ki value on aSyn fibrils compared to compounds 70 and 71 of WO2017/153601 [2]: improved by at least twofold

CN1CCN(c2ncc3nc(-c4ccc(N5CC(F)C5)nc4)sc3n2)C(=O)C1 [Example 7A]
Ki [1, 6]: > 500 nM | binding to aSyn fibrils in comparison to Examples 70 and 71 of WO2017/153601 [2]: similar | Ki [2, 4]: 55.3 nM

CN1CCN(c2ncc3nc(-c4ccc(N5CCC[C@@H](F)C5)nc4)sc3n2)C(=O)C1 [Example 7B]
Ki [1, 6]: > 500 nM | binding to aSyn fibrils in comparison to Examples 70 and 71 of WO2017/153601 [2]: improved | Ki [2, 4]: 31.3 nM

CN1CCN(c2ncc3nc(-c4ccc(N5CCC[C@H](F)C5)nc4)sc3n2)C(=O)C1 [Example 7C]
Ki [1, 3]: > 500 nM | Ki [1, 6]: > 500 nM | binding to aSyn fibrils in comparison to Examples 70 and 71 of WO2017/153601 [2]: improved | Ki [2, 4]: 34.2 nM

CN1CCN(c2ccc3nc(-c4ccc(N5CC[C@@H](F)C5)nc4)sc3c2)C(=O)C1 [Example 70 of WO2017/153601, reference compound]
Ki [1, 3]: > 500 nM | Ki [2, 4]: 39 nM | Ki [2, 5]: 97.7 nM

CN1CCN(c2ccc3nc(-c4ccc(N5CC[C@H](F)C5)nc4)sc3c2)C(=O)C1 [Example 71 of WO2017/153601, reference compound]
Ki [1, 3]: > 500 nM | Ki [2, 4]: 46.9 nM | Ki [2, 5]: 73.7 nM

[3H]C([3H])([3H])Nc1ccc(-c2ccc3cc(-c4cccnc4)sc3n2)cn1 [[^3H] Example 47 of WO2017/153601, reference compound]
Kd ([1]; measurements C and D, read-out: Kd of the radioligand on the AD insoluble fraction): 8 nM

[3H]C([3H])([3H])N1CCN(c2ccc3nc(-c4ccc(N5CCCC5)nc4)sc3c2)C(=O)C1 [[^3H] Example 69 of WO2017/153601, reference compound]
Kd ([2]; batch of aSyn fibrils of measurement A): 32 nM | Kd ([2]; second batch of aSyn fibrils, measurement B): 60 nM
